# From US5270457A, “Cardiac steriod glycosides” (University of Manitoba, priority 1992, dated 1993)
# Counter-ions that a name gives are not always drawn.
# Molecular target: Na/K-ATPase
# Assay: 3H-ouabain radioligand binding assay (RBA)
# Settings: for IC50: 3H-ouabain radioligand binding assay (RBA)
# From the text: The potency of steroids to displace the labelled cardiac glycoside (i.e. ouabain) in the assay parallel their biological activity, that is their cardiac glycoside-like activity, in their ability to inhibit Na/K-ATPase and elicit characteristic cellular response.
smiles,measurement,setting,value
"C[C@@H]1O[C@@H](O[C@H]2CC[C@@]3(C)[C@H](CC[C@@H]4[C@@H]3CC[C@]3(C)[C@@H](CN)CC[C@]43O)C2)[C@H](O)[C@H](O)[C@H]1O [Example 1, 14-Hydroxy-3β-(α-L-rhamnopyranosyl)oxy-20-amino-21-nor-5β14β-pregnane hydrochloride]",IC50,,60 nM
same,IC50,unit printed 'nm',60 nM
"C[C@@H]1O[C@@H](O[C@H]2CC[C@@]3(C)[C@H](CC[C@@H]4[C@@H]3CC[C@]3(C)[C@@H](C[N+](=O)[O-])CC[C@]43O)C2)[C@H](O)[C@H](O)[C@H]1O [Example 2, 14-Hydroxy-3β-(α-L-rhamnopyranosyl)oxy-20-nitro-21-nor-5β,14β-pregnane]",IC50,,11 nM
same,IC50,unit printed 'nm',11 nM
same,potency compared with Example 1 and Example 4,"comparison of IC50 values, in words",significantly greater than exhibited by the corresponding amino derivative (Example 1) and tridigitoxosyl derivative (Example 4)
"CC1OC(OC2C(O)CC(OC3C(O)CC(OC4CCC5(C)C(CCC6C5CCC5(C)C(CN)CCC65O)C4)OC3C)OC2C)CC(O)C1O [Example 3, 14-Hydroxy-3β-(tris-β-D-digitoxosyl)oxy-20-amine-21-nor-5β,14β-pregnane]",IC50,,400 nM
"CC1OC(OC2C(O)CC(OC3C(O)CC(OC4CCC5(C)C(CCC6C5CCC5(C)C(C[N+](=O)[O-])CCC65O)C4)OC3C)OC2C)CC(O)C1O [Example 4, 14-Hydroxy-3 β-(tris-β-D-digitoxosyl)oxy-20-nitro-21-nor-5β,14β-pregnane]",IC50,,60 nM
